Laboratory results from ChEMBL document CHEMBL1201862, “PubChem BioAssay data set” (2004).
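96-well plates; 48 h exposure; 5 concentrations. Endpoints by linear interpolation between flanking doses. Not reached: highest tested concentration assigned. At the GI50, growth is halved.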 Activity calls are given as the source filed them. Rule as the data show it: active = GI50 up to about 1.1 µM and inactive = higher.

Key:
Assay in all cases: DTP human tumour cell line panel, 48 h
[1] = system: 786-0
[2] = system: ACHN
[3] = system: BT-549
[4] = system: CCRF-CEM
[5] = system: DU-145
[6] = system: HL-60
[7] = system: K562
[8] = system: MCF7
[9] = system: NCI-H226
[10] = system: NCI-H522
[11] = system: NCI/ADR-RES
[12] = system: OVCAR-3
[13] = system: SF-539
[14] = system: SK-MEL-28
[15] = system: SK-MEL-2
[16] = system: SK-MEL-5
[17] = system: SN12C
[18] = system: HOP-62

Measured: GI50

CSc1ccc(Nc2cc(=O)[nH]c(=O)[nH]2)cc1
inactive: [1] > 100 µM | [2] > 100 µM | [3] > 100 µM | [4] > 100 µM | [5] > 100 µM | [6] > 100 µM | [7] > 100 µM | [8] > 100 µM | [9] > 100 µM | [10] > 100 µM | [11] > 100 µM | [12] > 100 µM | [13] > 100 µM | [14] > 100 µM | [15] > 100 µM | [16] > 100 µM | [17] > 100 µM

O=C1c2ccccc2C(=O)c2nn(N=P(CP(=Nn3nc4c(n3)C(=O)c3ccccc3C4=O)(c3ccccc3)c3ccccc3)(c3ccccc3)c3ccccc3)nc21
inactive: [1] > 100 µM | [2] > 100 µM | [3] > 100 µM | [4] > 100 µM | [5] > 100 µM | [6] 36.3 µM | [18] > 100 µM | [7] > 100 µM | [8] > 100 µM | [10] > 100 µM | [11] > 100 µM | [12] > 100 µM | [13] > 100 µM | [14] > 100 µM | [15] > 100 µM | [16] > 100 µM | [17] > 100 µM

COc1cc(O)c2c(=O)c(O)c(-c3ccc(O)c(OC)c3)oc2c1 [RHAMNAZIN]
inactive: [1] 3.44 µM | [3] 2 µM | [4] 2.92 µM | [5] > 100 µM | [6] 4.11 µM | [7] 4.37 µM | [8] 2.72 µM | [9] > 26.5 µM | [10] 2.3 µM | [11] 5.05 µM | [12] 2.52 µM | [13] 3.7 µM | [15] > 100 µM | [17] > 100 µM

CNc1ccc2nc(-c3ccc(OC(=O)N(C)C)cc3)cn2c1
inactive: [1] 14.5 µM | [2] 19.2 µM | [3] 17.8 µM | [4] 12.6 µM | [5] 24.3 µM | [6] 22.5 µM | [18] 18.8 µM | [7] 21 µM | [8] 20.7 µM | [9] 20.8 µM | [10] 13.7 µM | [11] 23.3 µM | [12] 40.7 µM | [14] 45.8 µM | [15] 14 µM | [16] 23.1 µM | [17] 14.1 µM

O=C1Oc2ccccc2N/C1=C/C(=O)c1ccc(Cl)cc1
inactive: [1] > 100 µM | [2] > 100 µM | [3] > 100 µM | [4] 7.96 µM | [5] > 100 µM | [18] > 100 µM | [7] 37.1 µM | [8] 41.7 µM | [9] > 100 µM | [10] 38.1 µM | [11] 39 µM | [12] 37.9 µM | [13] 46.9 µM | [15] > 100 µM | [16] 38.6 µM | [17] > 100 µM

COc1ccc(C2C3CCc4ccccc4C3=NN2S(=O)(=O)c2ccc(Cl)cc2)cc1 (stereo unspecified)
inactive: [1] 6.93 µM | [2] 15.4 µM | [3] 44.7 µM | [4] 17.9 µM | [5] 30 µM | [6] 17.9 µM | [18] 31.8 µM | [7] 4.98 µM | [8] 4.13 µM | [9] 20.7 µM | [10] 9.14 µM | [11] 5 µM | [12] 16.6 µM | [13] 18.3 µM | [15] 28.4 µM | [16] 16 µM | [17] 37 µM

O=NN1CCNC1Cc1ccccc1 (stereo unspecified)
inactive: [1] 52.8 µM | [2] 37.6 µM | [3] > 100 µM | [4] 31.8 µM | [5] 50.9 µM | [6] 37.6 µM | [18] 58.5 µM | [7] > 100 µM | [8] 37.2 µM | [9] > 100 µM | [10] 85.5 µM | [11] > 100 µM | [12] > 100 µM | [13] 48.9 µM | [14] > 100 µM | [16] 72.6 µM | [17] 63 µM

O=C1CSC2(CC(/C=C/c3ccccc3)=NN2c2cccc(S(=O)(=O)O)c2)N1c1nc2ccccc2s1 (stereo unspecified)
inactive: [1] 18.3 µM | [2] 27 µM | [3] 24.8 µM | [4] 19.1 µM | [5] 25.4 µM | [6] 27 µM | [7] 35.1 µM | [8] 17.1 µM | [9] 37.5 µM | [10] 19.5 µM | [11] 34.1 µM | [13] 39.7 µM | [14] 62.4 µM | [15] 22.6 µM | [16] 44.6 µM | [17] 28.7 µM
